Columns and labels:
Format in all cases: functional
NCI/ADR-RES [1] = test: cells; settings: Homo sapiens
Description: Growth inhibition of human NCI/ADR-RES cells assessed as drug level required for 50% reduction in net protein increase by SRB assay relative to control

T47D [2] = test: cells; settings: Homo sapiens
Description: Growth inhibition of human T47D cells assessed as drug level required for 50% reduction in net protein increase by SRB assay relative to control

CCRF-CEM = test: Cytotoxicity against human CCRF-CEM cells by SRB assay; settings: read-out: LC50 (the source's name)
HL-60(TB) = test: Cytotoxicity against human HL-60(TB) cells by SRB assay; settings: read-out: LC50 (the source's name)
RPMI-8226 [3] = test: Cytotoxicity against human RPMI8226 cells by SRB assay; settings: read-out: LC50 (the source's name)
EKVX = test: Cytotoxicity against human EKVX cells by SRB assay; settings: read-out: LC50 (the source's name)
HOP-92 = test: Cytotoxicity against human HOP92 cells by SRB assay; settings: read-out: LC50 (the source's name)
NCI-H226 = test: Cytotoxicity against human NCI-H226 cells by SRB assay; settings: read-out: LC50 (the source's name)
NCI-H322M = test: Cytotoxicity against human NCI-H322M cells by SRB assay; settings: read-out: LC50 (the source's name)
HCT-15 = test: Cytotoxicity against human HCT15 cells by SRB assay; settings: read-out: LC50 (the source's name)
SF-539 [4] = test: Cytotoxicity against human SF539 cells by SRB assay; settings: read-out: LC50 (the source's name)
U-251 [5] = test: Cytotoxicity against human U251 cells by SRB assay; settings: read-out: LC50 (the source's name)
LOX IMVI = test: Cytotoxicity against human LOXIMVI cells by SRB assay; settings: read-out: LC50 (the source's name)
M14 = test: Cytotoxicity against human M14 cells by SRB assay; settings: read-out: LC50 (the source's name)
SK-MEL-5 = test: Cytotoxicity against human SK-MEL-5 cells by SRB assay; settings: read-out: LC50 (the source's name)
UACC-257 = test: Cytotoxicity against human UACC257 cells by SRB assay; settings: read-out: LC50 (the source's name)
UACC-62 [6] = test: Cytotoxicity against human UACC62 cells by SRB assay; settings: read-out: LC50 (the source's name)
OVCAR-3 = test: Cytotoxicity against human OVCAR-3 cells by SRB assay; settings: read-out: LC50 (the source's name)
OVCAR-5 = test: Cytotoxicity against human OVCAR5 cells by SRB assay; settings: read-out: LC50 (the source's name)
A498 = test: Cytotoxicity against human A498 cells by SRB assay; settings: read-out: LC50 (the source's name)
ACHN = test: Cytotoxicity against human ACHN cells by SRB assay; settings: read-out: LC50 (the source's name)
SN12C = test: Cytotoxicity against human SN12C cells by SRB assay; settings: read-out: LC50 (the source's name)
PC-3 = test: cells; settings: Homo sapiens
Description: Growth inhibition of human PC3 cells assessed as cell growth at 10 uM by SRB assay

MDA-MB-231 [7] = test: cells; settings: Homo sapiens
Description: Growth inhibition of human MDA-MB-231 cells assessed as cell growth at 10 uM by SRB assay

TK-10 = test: Cytotoxicity against human TK10 cells by SRB assay; settings: read-out: LC50 (the source's name)
NCI/ADR-RES [8] = test: Cytotoxicity against human NCI/ADR-RES cells by SRB assay; settings: read-out: LC50 (the source's name)
MDA-MB-231 [9] = test: Cytotoxicity against human MDA-MB-231 cells by SRB assay; settings: read-out: LC50 (the source's name)
T47D [10] = test: Cytotoxicity against human T47D cells by SRB assay; settings: read-out: LC50 (the source's name)
HT-29 = test: cells; settings: Homo sapiens
Description: Growth inhibition of human HT-29 cells assessed as cell growth at 10 uM by SRB assay

NCI-H23 = test: cells; settings: Homo sapiens
Description: Growth inhibition of human NCI-H23 cells assessed as drug level required for 50% reduction in net protein increase by SRB assay relative to control

RPMI-8226 [11] = test: cells; settings: Homo sapiens
Description: Growth inhibition of human RPMI8226 cells assessed as drug level required for 50% reduction in net protein increase by SRB assay relative to control

SF-539 [12] = test: cells; settings: Homo sapiens
Description: Growth inhibition of human SF539 cells assessed as cell growth at 10 uM by SRB assay

U-251 [13] = test: cells; settings: Homo sapiens
Description: Growth inhibition of human U251 cells assessed as cell growth at 10 uM by SRB assay

UACC-62 [14] = test: cells; settings: Homo sapiens
Description: Growth inhibition of human UACC62 cells assessed as cell growth at 10 uM by SRB assay

BT-549 = test: cells; settings: Homo sapiens
Description: Growth inhibition of human BT549 cells assessed as cell growth at 10 uM by SRB assay

IGROV-1 = test: cells; settings: Homo sapiens
Description: Growth inhibition of human IGROV1 cells assessed as cell growth at 10 uM by SRB assay

Row | SMILES | GI50 (NCI/ADR-RES [1]) [µM] | GI50 (T47D [2]) [µM] | CC50 (CCRF-CEM) [µM] | CC50 (HL-60(TB)) [µM] | CC50 (RPMI-8226 [3]) [µM] | CC50 (EKVX) [µM] | CC50 (HOP-92) [µM] | CC50 (NCI-H226) [µM] | CC50 (NCI-H322M) [µM] | CC50 (M14) [µM] | CC50 (OVCAR-3) [µM] | growth at 10 µM (PC-3) [%] | growth at 10 µM (MDA-MB-231 [7]) [%] | CC50 (T47D [10]) [µM] | growth at 10 µM (HT-29) [%] | GI50 (NCI-H23) [µM] | GI50 (RPMI-8226 [11]) [µM] | growth at 10 µM (SF-539 [12]) [%] | growth at 10 µM (U-251 [13]) [%] | growth at 10 µM (UACC-62 [14]) [%] | other results
1 | CCCCCCCCCCCCCCCCCCPCCCCCCCCCCCCCC.O=S(=O)(NS(=O)(=O)C(F)(F)F)C(F)(F)F (stereo not drawn) | 0.73 | 0.073 | 8.46 | 0.711 | 0.098 | > 100 | > 100 | > 100 | > 100 | > 100 | 6.76 | -78.1 | -38.3 | > 100 | -58.2 | 0.192 | 0.016 | 5.67 | -68.4 | -28.1 | CC50 (HCT-15): > 100 µM; CC50 (SF-539 [4]): > 100 µM; CC50 (U-251 [5]): 5.62 µM; CC50 (LOX IMVI): 0.592 µM; CC50 (SK-MEL-5): 0.829 µM; CC50 (UACC-257): > 100 µM; CC50 (UACC-62 [6]): > 100 µM; CC50 (OVCAR-5): > 100 µM; CC50 (A498): > 100 µM; CC50 (ACHN): > 100 µM; CC50 (SN12C): 4.44 µM; CC50 (TK-10): > 100 µM; CC50 (NCI/ADR-RES [8]): > 100 µM; CC50 (MDA-MB-231 [9]): > 100 µM
2 | CCCCCCCC[N+](C)(CCCCCCCC)CCCCCCCC.O=S(=O)([N-]S(=O)(=O)C(F)(F)F)C(F)(F)F | 1.68 | 0.428 | 2.44 | 1.23 | 0.951 | 4.31 | 4.47 | 4.41 | 6.12 | 9.19 | 4.18 | -91.3 | -87 | > 100 | -100 | 0.308 | 0.046 | -100 | -75 | -94.5 | CC50 (HCT-15): 5.23 µM; CC50 (SF-539 [4]): 4.19 µM; CC50 (U-251 [5]): 4.32 µM; CC50 (LOX IMVI): 1.08 µM; CC50 (SK-MEL-5): 0.677 µM; CC50 (UACC-257): 6.16 µM; CC50 (UACC-62 [6]): 4.1 µM; CC50 (OVCAR-5): 8.17 µM; CC50 (A498): 6.36 µM; CC50 (ACHN): 4.52 µM; CC50 (SN12C): 4.06 µM; CC50 (TK-10): 4.86 µM; CC50 (NCI/ADR-RES [8]): 8.13 µM; CC50 (MDA-MB-231 [9]): 3.63 µM
3 | CCCCCCCCCCCCCCCCCCPCCCCCCCCCCCCCC (stereo not drawn) [MONO(OCTADECYL(TETRADECYL)PHOSPHONIUM) MONO(HEXAFLUOROPHOSPHATE(V)) MONO(TETRAFLUOROBORATE)] | 0.947 | 0.089 |  |  |  |  |  |  |  | > 100 | > 100 | -32.7 | -74.5 | > 100 | -45 | 0.236 | 0.016 | -83.2 | -6.5 | -77.4 | growth at 10 µM (BT-549): -83.5%; growth at 10 µM (IGROV-1): -19.6%

From ChEMBL document CHEMBL1153480, “Study on the potential anti-cancer activity of phosphonium and ammonium-based ionic liquids” (2009)
